According to patent US8329899B2, “Pyrazole compounds that modulate HSP90 activity” (Synta Pharmaceuticals, Corp., priority 2005, dated 2012):

System: Her2
Test: Degradation of Her2 in BT-474 cells, Method 1 (Western blot)
Type: cell-based, Human
Conditions: 0.5 μM, overnight
Description: Human high-Her2 breast carcinoma BT474 (HTB-20), SK-BR-3 (HTB-30) and MCF-7 breast carcinoma (HTB-22) from American Type Culture Collection, Va., USA were grown in Dulbecco's modified Eagle's medium with 4 mM L-glutamine and antibiotics (100 IU/ml penicillin and 100 ug/ml streptomycine; GibcoBRL). To obtain exponential cell growth, cells were trypsinized, counted and seeded at a cell density of 0.5×10^6 cells/ml regularly, every 3 days. All experiments were performed on day 1 after cell passage.
BT-474 cells are treated with 0.5 μM, 2 μM, or 5 μM of 17AAG (a positive control) or 0.5 μM, 2 μM, or 5 μM of a compound of the invention overnight in DMEM medium. After treatment, each cytoplasmic sample is prepared from 1×10^6 cells by incubation of cell lysis buffer (#9803, cell Signaling Technology) on ice for 10 minutes. The resulting supernatant used as the cytosol fractions is dissolved with sample buffer for SDS-PAGE and run on a SDS-PAGE gel, blotted onto a nitrocellulose membrane by using semi-dry transfer. Non-specific binding to nitrocellulose is blocked with 5% skim milk in TBS with 0.5% Tween at room temperature for 1 hour, then probed with anti-Her2/ErB2 mAb (rabbit IgG, #2242, Cell Signaling) and anti-Tubulin (T9026, Sigma) as housekeeping control protein. […]

C=CCNC1=C2C[C@@H](C)C[C@H](OC)[C@H](O)[C@@H](C)/C=C(\C)[C@H](OC(N)=O)[C@@H](OC)/C=C\C=C(/C)C(=O)NC(=CC1=O)C2=O [Compound 17AAG]
degradation of Her2: partial degradation
